Source: PubChem BioAssay (NCI)
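1) Cells in 96-well plates. 2) Compound, 48 h, 5 concentrations. 3) Linear interpolation between surrounding doses. 4) Unreached endpoint = highest concentration. GI50 marks 50% less growth. TGI: concentration producing complete growth inhibition.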

Legend:
Assay in all cases: inhibition of tumour cell growth, NCI panel, 48 h
[1] = system: HOP-92 NSCLC
[2] = system: SK-MEL-2 melanoma
[3] = system: CAKI-1 renal
[4] = system: K-562 leukemia
[5] = system: OVCAR-8 ovarian
[6] = system: NCI-H522 lung
[7] = system: NCI/ADR-RES ovarian
[8] = system: M14 melanoma

| Compound | GI50 [1] [µM] | TGI [1] [µM] | GI50 [2] [µM] | TGI [2] [µM] | GI50 [3] [µM] | TGI [3] [µM] | GI50 [4] [µM] | TGI [4] [µM] | GI50 [5] [µM] | TGI [5] [µM] | GI50 [6] [µM] | TGI [6] [µM] | GI50 [7] [µM] | TGI [7] [µM] | GI50 [8] [µM] | TGI [8] [µM] |
| --- | --- | --- | --- | --- | --- | --- | --- | --- | --- | --- | --- | --- | --- | --- | --- | --- |
| CCCSC1=NC2C(N(CC)C(=O)N2CC)N1/N=C/C=C/c1ccccc1[N+](=O)[O-] (centres undefined) | 1.27 | 8.47 | 7.26 | > 100 | 2.93 | > 100 | 2.31 | > 100 | 3.76 | > 100 | 2.12 | 41 | 2.5 | 8.46 | 2.83 | 20.8 |
| O=C1CCc2c(sc3[nH]c(=S)n(Cc4ccccc4)c(=O)c23)C1 | 1.92 | 5.33 | 2.49 | 5.81 | 2.54 | 8.31 | 1.76 | > 100 | 3.19 | > 100 | 0.852 | 5.05 | 3.25 | > 100 | 3.75 | > 100 |
| COc1cnc2c(c1)C(=O)c1c-2n(CCCN2CCCC2)c(=O)c2cc(F)ccc12 | 0.531 | 7.8 | 1.39 | 10.4 |  |  | 0.263 | 1.55 | 0.206 | 1.05 | 0.0819 | 1.23 | 0.467 | 3.19 | 0.392 | 1.95 |
| CCc1nc(Cl)nc(Cl)c1Cl |  | 5.16 |  |  |  | 1.15 |  | 3.62 |  | 5.34 |  | 0.234 |  | 9.41 |  | 5.29 |
| C=C(C)[C@@H]1CC[C@]2(COC3CCCCO3)CC[C@]3(C)[C@H](CC[C@@H]4[C@@]5(C)C=C(C=O)C(=O)C(C)(C)[C@@H]5CC[C@]43C)[C@@H]12 (some centres undefined) | 1.49 | 2.89 | 1.56 | 3.26 | 1.34 | 2.61 | 1.64 | 5.98 | 1.49 | 3.86 | 1.38 | 2.86 | 3.16 | 26.9 | 1.34 | 3.01 |
| C#Cc1cccc(Nc2nc3ccc([N+](=O)[O-])cc3nc2Nc2cccc(C#C)c2)c1 | 0.191 | 0.704 | 0.26 | 0.742 | 0.297 | 0.994 | 0.216 | 0.7 | 0.303 | 1.46 | 0.209 | 0.609 | 0.284 | 1.1 | 0.199 | 0.495 |
| O=C(OCc1ccc2c(Cl)cc(Cl)c(O)c2n1)c1cc2ccccc2[nH]1 | 0.228 | 0.722 | 1.47 | 3.25 | 0.435 | 1.65 | 0.336 | 10.2 | 0.818 | 3.05 | 0.361 | 1.15 | 0.953 | 5.22 | 0.279 | 0.898 |
| Nc1nnc(Cn2c(-c3ccccc3)nc3ccc(Br)cc3c2=O)s1 | 10.8 | > 100 | > 100 | > 100 | 25.1 | > 100 |  |  | 1.25 | 41 | 38.1 | > 100 | 41.2 | > 100 | 49 | > 100 |
| NC(=O)/C=C/NC(=O)/C=N\O |  | > 100 |  |  |  | > 100 |  | > 100 |  | > 100 |  | > 100 |  | > 100 |  | > 100 |
| COc1ccc(-c2c(-c3cc(OC)c4c(c3)OCO4)noc2N)cc1 | 3.72 | 35.8 | 0.0324 | 21.5 | 0.0424 | 57.2 | 0.0193 | > 100 | 0.0654 | 22.8 |  | 0.0239 |  |  |  |  |
| C=C1C(=O)O[C@H]2[C@H]1CC/C(COC(=O)c1ccc(C#N)cc1)=C\CC[C@@]1(C)O[C@@H]21 | 1.59 | 3.8 | 1.98 | 4.54 |  |  | 1.94 | 13 | 2.75 | 11.2 | 1.55 | 3.35 | 4.25 | 18.8 | 1.69 | 3.64 |
| N#Cc1ccc(C(c2ccc(C#N)cc2)n2cncn2)cc1 |  |  |  |  | > 5000 | > 5000 | 3800 | > 5000 |  | > 5000 |  | > 5000 | > 5000 | > 5000 | > 5000 | > 5000 |
| O=C1C(Cl)=C(Nc2cccc(O)c2)C(=O)N1c1ccccc1Cl |  |  | 25.5 | 61.6 | 40.3 | > 100 | 25 | 63.2 | 32.1 | > 100 | 17.3 | 41.8 | 56.3 | > 100 | 21.5 | > 100 |
| CSc1ccc(/C=C/c2ccnc3ccccc23)cc1 |  | 30.2 |  | 30.1 |  |  |  | 30.9 |  | 28.8 |  | 28.6 |  | 29.5 |  | 22.1 |
| Cc1nc(N)sc1C(=O)Nc1cc(C(=O)NCCCN(C)C)n(C)c1 | > 100 | > 100 | > 100 | > 100 | > 100 | > 100 | > 100 | > 100 | > 100 | > 100 | > 100 | > 100 | > 100 | > 100 |  |  |
| CCc1nc(N)nc(N)c1-c1ccc(NCCc2ccccc2)c([N+](=O)[O-])c1 |  | 35.7 |  | 36.7 |  | > 71.3 |  | > 36.3 |  | 89 |  |  |  | 53.7 |  | 39.3 |
| CCCCC#CC#Cc1cccc(=O)o1 | 33.2 | > 100 | 38.6 | 69.3 | 22.5 | 60 |  |  | 26.4 | 62.9 | 23.2 | 52.1 | 17.2 | 37.4 | 21.7 | 40.6 |
| COc1ccc(-c2cc(=O)c3c(O)cc(C)cc3o2)cc1OC |  | > 100 |  | > 100 |  |  |  | > 100 |  |  |  | > 100 |  | > 100 |  | > 100 |
